Reference: patent publication US20090288225A1, “Novel Aromatic Acyltransferase Genes” (Aomori Prefecture, priority 2006, published 2009)

B1: LeGT13-20: lobelia 1-O-acyl-β-D-glucose synthase, 486 amino acid residues, SEQ ID NO: 16 (protein)
chain: MGSLQGTTTVENLTHVFLVSFPGQGHVNPLLRLGKILAFKGLLVTFSAPEMVGEIIKGANKYISDDELTPIGDGMIRFEFFSDGLGNTKEDNSLRGNMDLYMPQLATFAKKSLSEILIKHEKHGRPVACLINNPFIPWISELAEEFNIPSAVLWVQSCASFSAYYHYHHGLVPFPTENEPERDVQLPNMPLLKYDEIPGFLLPSSPYGFLRRAILGQFKLLSKPICILVESFQELENDCINYLSTLCPIKPIGPLFSNPSVRNGSSIRGDFMKVEDCIDWLNTRADSSVVYVSFGSIVYVKQEQITEIARGLADSGLSFLWAFKQPGIDMGLTPPSLPDGFLEEVKGRGKVVEWCSQEAVLSHPAVSCFMSHCGWNSTMEALSSGVPVAAFPIWGDQVTDAKFLVDEFKVGIRMCRGEADINKKVVTREEIARCLLAATSGPKAEELKRNALKWKKAAADSVGAGGSSDRNLEEFVGSIRKDVVGH
modifications: Lobelia erinus cv.Riviera Midnight Blue; Amino acid sequence of UDP-glucose hydroxycinnamic acid 1-O-glucosyltransferase
B2: CtSCPL1: butterfly pea SCPL acyltransferase, 487 amino acid residues, SEQ ID NO: 2 (protein)
chain: MAAFSSTHSACGILLLPLVVSSLICFQLASCGTIVEFLPGFDGPLPFVLETGYVGVGEGEDVQVFYYFVESENNPNEDPLMLWLTGGPGCSAFSGLALEIGPLIFKREEYNGGLPNLILRPHSWTKVSSIIFVDLPVSTGFTYARTDAAAQRSDWTLVHHAHEFLRKWLIDHPKFLQNELYIGGDSYSGIPIPVIVQEISQENEKGIQPWINLQGYILGNAITTRREKGYSIPFAHGMALISDELYESLRKNCKGEYLNVDPENVLCSRDIDSYSKATSRISFAHILERTCNSGDIKTSLRRSTIQRHHTKKFLNTNLKLPPLTCRTYANFQCGLWANDDNVRSALHIHKGSIGEWHRCSIRLPFTSDIPNSFEYHVNLSRKGYYRSLIYSGDHDMMVPFLGTQAWIRSLNYSIVDDWRPWNTNGQVAGYTRTYSNRMTYATIKGGGHTAPEFKPEECFAMYSRWISKRPLYENNTMSSYTNLASIL
modifications: Clitoria ternatea cv. Double Blue; Amino acid sequence of 1-O-acyl-Beta-D-glucose anthocyanin-O-acyltansferase

Legend:
[1] = system: 35-70% ammonium sulfate precipitate fraction of the protein extracted from butterfly pea petals; experiment: Examination of substrates: acyltransferase activity with butterfly pea petal protein fraction; type: biochemical, butterfly pea (Clitoria ternatea); conditions: for acyltransferase activity as acyl donor: acyl receptor preternatin C5, specific activity order: sinapoyl, feruloyl, p-coumaroyl, caffeoyl glucose (highest first); for acyltransferase activity as acyl acceptor: acyl donor 1-O-p-coumaroyl-β-D-glucose
Procedure: (§1) A reaction solution (20 μl) containing 100 mM phosphate buffer (pH 6.5), 0.4 mM anthocyanin (4 μl), 0.5 mM 1-O-acyl-β-D-glucose (4 μl) and an enzyme solution (8 μl) was reacted at 30° C. The reaction was terminated by adding 4 μl of 1M aqueous hydrochloric acid solution. After addition of 24 μl of 5% acetonitrile containing 0.05 M TFA, the reaction solution was filtered with Millex-LH filter (Millipore) and then analyzed by HPLC by feeding a 10 μl aliquot.
(§2) HPLC analysis of anthocyanin acyltransferase reaction products were performed with Develosil ODS-UG-5 column (3.0 i.d.×250 mm; Nomura Chemical) at a column temperature of 35° C. Against an initial solvent that was 0.05 M trifluoroacetate (TFA)-containing 5% acetonitrile (MeCN) aqueous solution, 0.05 M TFA-containing 40% MeCN was added with a linear concentration gradient from 14 to 86% (20 min) and the reaction products were eluted at a flow rate of 0.5 ml/min. The reaction products were detected with PDA and their molecular weights were confirmed by LC-MS/MS.
In order to detect an enzyme activity of transferring an aromatic acyl group to the sugar residue of flavonoids using 1-O-acyl-β-D-glucose as an acyl donor, various types of 1-O-acyl-β-D-glucose and anthocyanin were examined. Briefly, enzyme activities were measured using 35-70% ammonium sulfate precipitate fraction of the protein extracted from butterfly pea petals as an enzyme solution, preternatin C5 as an acyl receptor, and various 1-O-acyl-β-D-glucoses as an acyl donor. […] Specific activity was higher in the following order: 1-O-sinapoyl-β-D-glucose, 1-O-feruloyl-β-D-glucose, 1-O-p-coumaroyl-β-D-glucose and 1-O-caffeoyl-β-D-glucose. Further, enzyme activities were measured using 1-O-p-coumaroyl-β-D-glucose as an acyl donor and various types of anthocyanin as an acyl acceptor.

[2] = UDP-glucose:hydroxycinnamate 1-O-glucosyltransferase activity of recombinant proteins from E. coli; type: biochemical; conditions: against all four types of hydroxycinnamic acid used
Procedure: The transformed E. coli was shaking-cultured overnight in 3 ml of LB medium containing 50 μg/ml kanamycin and 34 μg/ml chloramphenicol. This culture broth (500 μl) was inoculated into LB medium (50 ml) and shaking-cultured until absorbance at 600 nm reached 0.4. Then, isopropyl-β-D-thiogalactoside (IPTG) was added to give a final concentration of 0.4 mM. The cells were shaking-cultured at 25° C. for 16 hr and then harvested by refrigerated centrifugation (8000 rpm, 4° C., 20 min). CtGT11-4 protein was partially purified from the cells using Ni-NTA mini-column according to the method recommended by the manufacturer. […]
For measuring enzyme activity, a 30 μl reaction solution containing 100 mM potassium phosphate buffer (pH 7.4), 30 pmole of UDP-glucose, 30 pmole of hydroxycinnamic acid and 15 μl of recombinant protein solution was reacted at 30° C. […] The enzyme reaction products were analyzed by reversed-phase high performance liquid chromatography (Shiseido NanoSpace system) using Develosil C30-UG-5 (1.5 i.d.×250 mm). […] The eluted materials were detected with a PDA detector, and the resultant data were analyzed to thereby quantitatively determine 1-O-acyl-β-D-glucose. […]
LeGT13-20 and LeGT13-30 genes were expressed using pET30Ek/LIC System (Novagen). […] Resultant several clones were analyzed to confirm the nucleotide sequences thereof, and then transformed into E. coli BL21-CodonPlus(DE3)-RP. […]

[3] = Enzyme activity of recombinant CtSCPL1 protein expressed in Baculovirus-Sf9 insect cells; type: biochemical, butterfly pea (Clitoria ternatea)
Procedure: as §1, §2
Sf9 cells monolayer-cultured in complete Grace medium or Sf900II-SFM serum free medium (Gibco) in 6-well plates (3×10^6 cells) were infected with the recombinant virus at a multiplicity of infection (MOI) of 5-10. […] Enzyme reaction was performed using the thus concentrated protein solution, and the reaction product was analyzed by HPLC and LC-MS. […]

Molecule	acyltransferase activity as acyl donor [1]	acyltransferase activity as acyl acceptor [1]	further results
O=C(/C=C/c1ccc(O)c(O)c1)O[C@@H]1O[C@H](CO)[C@@H](O)[C@H](O)[C@H]1O [1-O-caffeoyl-β-D-glucose]	acyltransferase activity was detected		
COc1cc(/C=C/C(=O)O[C@@H]2O[C@H](CO)[C@@H](O)[C@H](O)[C@H]2O)ccc1O [1-O-feruloyl-β-D-glucose]	acyltransferase activity was detected		
O=C(/C=C/c1ccc(O)cc1)O[C@@H]1O[C@H](CO)[C@@H](O)[C@H](O)[C@H]1O [1-O-p-coumaroyl-β-D-glucose]	acyltransferase activity was detected		
COc1cc(/C=C/C(=O)O[C@@H]2O[C@H](CO)[C@@H](O)[C@H](O)[C@H]2O)cc(OC)c1O [1-O-sinapoyl-β-D-glucose]	acyltransferase activity was detected		
O=C(O)CC(=O)OCC1OC(Oc2cc3c(O)cc(O)cc3[o+]c2-c2cc(O)c(O)c(OC3OC(CO)C(O)C(O)C3O)c2)C(O)C(O)C1O (stereo not shown) [delphinidin 3-(6-malonyl)glucoside-3′-glucoside]		acyltransferase activity was detected	
OC[C@H]1O[C@@H](Oc2cc3c(O)cc(O)cc3[o+]c2-c2cc(O[C@@H]3O[C@H](CO)[C@@H](O)[C@H](O)[C@H]3O)c(O)c(O[C@@H]3O[C@H](CO)[C@@H](O)[C@H](O)[C@H]3O)c2)[C@H](O)[C@@H](O)[C@@H]1O [preternatin C5, delphinidin 3,3′,5′-triglucoside]		acyltransferase activity was detected	
O=C(O)CC(=O)OC[C@H]1O[C@@H](Oc2cc3c(O)cc(O)cc3[o+]c2-c2cc(O[C@@H]3O[C@H](CO)[C@@H](O)[C@H](O)[C@H]3O)c(O)c(O[C@@H]3O[C@H](CO)[C@@H](O)[C@H](O)[C@H]3O)c2)[C@H](O)[C@@H](O)[C@@H]1O [ternatin C5, Delphinidin 3-(6-malonyl)glucoside 3′,5′-diglucoside]		acyltransferase activity was detected	
B1			glucosyltransferase activity [2]: glucosyltransferase activity was confirmed
B2			3′AT activity ([3]; substrates preternatin C5 or delphinidin 3-(6-malonyl)glucoside-3′-glucoside and 1-O-feruloyl-β-D-glucose): 3′AT activity was confirmed; 3′AT activity ([3]; substrates ternatin C5 and 1-O-p-coumaroyl-β-D-glucose): 3′AT activity was also recognized
